For 18 molecules, inhibition, EC50 and ΔTm results are on record in ChEMBL document CHEMBL5634070, “Assessment of the structure-activity relationship and antileukemic activity of diacylpyramide compounds as human ClpP agonists” (Eur J Med Chem, 2023).

Molecules are shown by their SMILES.

In one experiment the test system is MOLM-13. The experiment is described as follows: Antiproliferative activity against human MOLM-13 cells assessed as inhibition of cell growth at 20 uM by CCK-8 assay relative to control. It counts as functional. On the technique in general: Tetrazolium dyes change colour on reduction, which living cells bring about.
The target in experiment [1] is T1, ATP-dependent Clp protease proteolytic subunit, mitochondrial (Homo sapiens, UniProt Q16740). The experiment is described as follows: Agonist activity at human CLpP by measuring alpha-casein hydrolysis using alpha-casein as substrate preincubated for 10 mins followed by substrate addition and measured after 120 mins by Coomassie brilliant blue staining based SDS-PAGE assay.

In a further experiment the test system is NB-4. Kind of experiment: Inhibition of colony formation in human NB4 cells incubated for 14 days. The conditions noted are these: time 14.0 day. It counts as functional, cell-based.
In experiment [2] the target is T1, ATP-dependent Clp protease proteolytic subunit, mitochondrial. The experiment is described as follows: Agonist activity at human CLpP by measuring alpha-casein hydrolysis using alpha-casein as substrate by FITC staining based assay.
Experiment [3] shares this target. The experiment is described as follows: Binding affinity to human CLpP assessed as change in melting temperature by DSF assay. Conditions: filed as agonist. In general terms: In DSF a fluorescence change marks the thermal transition of the protein.

T1 sequence (Q16740 whole entry): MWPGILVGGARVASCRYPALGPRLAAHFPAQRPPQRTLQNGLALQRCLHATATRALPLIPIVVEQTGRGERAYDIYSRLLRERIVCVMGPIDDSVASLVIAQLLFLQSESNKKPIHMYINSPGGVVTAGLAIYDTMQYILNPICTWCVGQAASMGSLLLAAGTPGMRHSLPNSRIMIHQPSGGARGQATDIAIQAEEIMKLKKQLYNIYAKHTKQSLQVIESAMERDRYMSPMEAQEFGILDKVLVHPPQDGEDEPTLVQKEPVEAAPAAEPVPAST

Turning to `CC[C@H](C)[C@H]1C(=O)N(Cc2cccc3ccccc23)C[C@@H]2N(C(=O)CCc3ccc(F)cc3)CCC(=O)N12`, the inhibition (commonly how much of the control response was suppressed) at 20 µM in the experiment with MOLM-13 worked out at 58.2%. The molecule further registered an EC50 in experiment [1] of 10.4 µM.

As to `CCCCNC(=O)N1CCC(=O)N2[C@@H]([C@@H](C)CC)C(=O)N(Cc3cccc4ccccc34)C[C@H]12`, in the experiment with MOLM-13, the inhibition at 20 µM came out at 23.6%. The EC50 in experiment [1] is 4.6 µM.

Take `NC(=O)C[C@H]1C(=O)N(Cc2cccc3ccccc23)C[C@@H]2N(C(=O)NCc3ccccc3)CCC(=O)N21`: the inhibition at 20 µM with MOLM-13 is 5.5%. In addition, in experiment [1], the EC50 was more than 25 µM.

With `CC[C@H](C)[C@H]1C(=O)N(Cc2cccc3ccccc23)C[C@@H]2N(C(=O)NCc3ccc(Br)cc3)CCC(=O)N12`, the inhibition entry with NB-4 was “Dose-Dependent Effect”. The EC50 in experiment [2] stood at 1.19 µM; in experiment [1] it was 2.8 µM. Besides, in the experiment on MOLM-13, the inhibition at 20 µM was determined as 99.7%. Besides, the shift in melting temperature (ΔTm) (in general, the change in melting temperature against a reference sample) in experiment [3] stood at 16.4 °C.

Take `CC[C@H](C)[C@H]1C(=O)N(Cc2cccc3ccccc23)C[C@@H]2N(C(=O)NCC3CCCCC3)CCC(=O)N12`: the inhibition at 20 µM in the experiment on MOLM-13 was 99.5%. The EC50 in experiment [1] is 11.2 µM.

On to `O=C1[C@H](Cc2ccccc2)N2C(=O)CCN(C(=O)NCc3ccccc3)[C@H]2CN1Cc1cccc2ccccc12`, for which, in the experiment with MOLM-13, the inhibition at 20 µM stood at 34%. For the same molecule, the EC50 in experiment [1] is 14.4 µM.

Take `CC[C@H](C)[C@H]1C(=O)N(Cc2cccc3ccccc23)C[C@@H]2N(C(=O)NCc3cc(F)c(Br)c(F)c3)CCC(=O)N12`: in the experiment on MOLM-13, the inhibition at 20 µM amounted to 99.1%. In experiment [1], this molecule showed an EC50 of 3.6 µM.

Consider `CC[C@H](C)[C@H]1C(=O)N(Cc2cccc3ccccc23)C[C@@H]2N(C(=O)NCc3ccc(Br)cc3F)CCC(=O)N12`, for which the inhibition at 20 µM in the experiment with MOLM-13 was 98%. In experiment [1], this molecule registered an EC50 of 5.6 µM.

For `CC[C@H](C)[C@H]1C(=O)N(Cc2cccc3ccccc23)C[C@@H]2N(C(=O)NCc3ccc(C)cc3)CCC(=O)N12`, the inhibition at 20 µM in the experiment on MOLM-13 came out at 99.4%. The same molecule showed an EC50 in experiment [1] of 3.3 µM.

With `CC[C@H](C)[C@H]1C(=O)N(Cc2cccc3ccccc23)C[C@@H]2N(C(=O)NCc3ccc(F)cc3Cl)CCC(=O)N12`, in the experiment on MOLM-13, the inhibition at 20 µM stood at 99.8%. The EC50 in experiment [1] was 8.7 µM.

Take `CC[C@H](C)[C@H]1C(=O)N(Cc2cccc3ccccc23)C[C@@H]2N(C(=O)NCc3ccc(OC)cc3)CCC(=O)N12`: the inhibition at 20 µM in the experiment with MOLM-13 was 99.4%. This molecule also came in with an EC50 in experiment [1] of 3.4 µM.

Regarding `CC[C@H](C)[C@H]1C(=O)N(Cc2cccc3ccccc23)C[C@@H]2N(C(=O)NCc3cc(Br)cc(Br)c3)CCC(=O)N12`, the inhibition at 20 µM in the experiment on MOLM-13 was determined as 98.4%. Also, in experiment [1], the EC50 is more than 25 µM.

Turning to `CC[C@H](C)[C@H]1C(=O)N(Cc2ccc(F)c3ccccc23)C[C@@H]2N(C(=O)NCc3ccc(Br)cc3)CCC(=O)N12`, the inhibition at 20 µM with MOLM-13 came to 97.7%. Further, the EC50 in experiment [1] came out at 3.8 µM.

Take `O=C1[C@H](Cc2cnc[nH]2)N2C(=O)CCN(C(=O)NCc3ccccc3)[C@H]2CN1Cc1cccc2ccccc12`: the inhibition at 20 µM in the experiment with MOLM-13 amounted to 13.4%. Moreover, the EC50 in experiment [1] is 22.8 µM.

For `CC[C@H](C)[C@H]1C(=O)N(Cc2cccc3ccccc23)C[C@@H]2N(C(=O)NCc3c(F)cc(Br)cc3F)CCC(=O)N12`, the inhibition at 20 µM with MOLM-13 stood at 99.1%. In experiment [1], this molecule showed an EC50 of more than 25 µM.

`CC[C@H](C)[C@H]1C(=O)N(Cc2cccc3ccccc23)C[C@@H]2N(C(=O)NCc3ccc(Cl)cc3)CCC(=O)N12`: in the experiment with MOLM-13, the inhibition at 20 µM was 98.3%. Besides, in experiment [1], the EC50 came out at 2.7 µM.

Regarding `CC[C@H](C)[C@H]1C(=O)N(Cc2cccc3c2OCO3)C[C@@H]2N(C(=O)NCc3ccc(Br)cc3)CCC(=O)N12`, the inhibition at 20 µM with MOLM-13 came out at 44.4%. The same molecule yielded an EC50 in experiment [1] of 14.9 µM.

With `CC[C@H](C)[C@H]1C(=O)N(Cc2cccc3ccccc23)C[C@@H]2N(C(=O)NCc3ccc(F)c(F)c3)CCC(=O)N12`, the inhibition at 20 µM in the experiment with MOLM-13 stood at 99.6%. The molecule further returned an EC50 in experiment [1] of 3.7 µM.
